From patent US20020198315A1, “Salts of peptides with carboxy-terminated polyesters” (priority 1992, published 2002)

What was measured:
[1] = cited from earlier work
[2] = Dissolution / solubility in dichloromethane; assay type: physicochemical
Description: To this solution was added trifluoroacetic acid (50 μl), and the mixture was stirred vigorously.
The drug solution was added to the copolymer solution and was mixed thoroughly. This mixture was then added dropwise to liquid nitrogen to freeze it as small beads. The solid material was freeze dried for two days using an Edwards high vacuum freeze drier, and the dried material was further dried at 50-55° C. in a vacuum oven for 24 hours.
The peptide known as Substance P, in the form of its acetate salt (ex Sigma, 2 mg) was added to dichloromethane (3 ml) and thoroughly agitated.
Lys^8-vasopressin acetate salt (2 mg, ex Sigma) was added to dichloromethane (3 ml) and agitated.
(i) Dichloromethane (4 ml) was added to a freeze-dried preparation of ZD6003 (39.72 mg).
A lactide/glycolide copolymer (75/25, 364.1 mg, Mw=16,800 by size exclusion chromatography, polydispersity=2.2, ex Boehringer Ingelheim) was added.

## CC(C)C[C@H](NC(=O)[C@@H](COC(C)(C)C)NC(=O)[C@H](Cc1ccc(O)cc1)NC(=O)[C@H](CO)NC(=O)[C@H](Cc1c[nH]c2ccccc12)NC(=O)[C@H](Cc1cnc[nH]1)NC(=O)[C@@H]1CCC(=O)N1)C(=O)N[C@@H](CCCNC(=N)N)C(=O)N1CCC[C@H]1C(=O)NNC(N)=O [Goserelin acetate]
40° C., stirred, aliquots after 2 and 9 Days, limit of detection 0.2 μg/ml
  goserelin in benzyl benzoate supernatant, in words: No goserelin was detectable in either sample
At 40° C.
  equilibrium solubility of goserelin in benzyl benzoate (estimated): less than 0.2 μg/mg
Lipophilic solvents such as benzyl benzoate
  solubility in benzyl benzoate, in words: not soluble

## CC(C)C[C@H](NC(=O)[C@@H](COC(C)(C)C)NC(=O)[C@H](Cc1ccc(O)cc1)NC(=O)[C@H](CO)NC(=O)[C@H](Cc1c[nH]c2ccccc12)NC(=O)[C@H](Cc1cnc[nH]1)NC(=O)[C@@H]1CCC(=O)N1)C(=O)N[C@@H](CCCNC(=N)N)C(=O)N1CCC[C@H]1C(=O)NNC(N)=O [goserelin, [D-Ser(Bu^t)^6, Azgly^10]-LHRH]
[1]
  metabolic half-life: 4 to 6 h

## Lys^8-vasopressin acetate salt
[2]
  behaviour in dichloromethane (dissolves or not), in words: showed no indication of dissolving

## Substance P
[2]
  behaviour in dichloromethane (dissolves or not), in words: showed no indication of dissolving

## [Het^−1, Arg^11, Ser^17,27,60,65] human G-CSF (granulocyte-colony stimulating factor) modified with polyethylene glycol 5000 [ZD6003]
[2]
  behaviour in dichloromethane (dissolves or not), in words: opaque dispersion of drug in the solvent
